In patent US20260022142A1, “MACROCYCLIC IMMUNOMODULATORS” (Bristol-Myers Squibb Company, priority 2022, published 2026):
Bridge positions count the residues as written; N and C are the ends. Square brackets hold non-standard residues; d marks the D form. Peptide text beside a SMILES is read from it. * marks the point of attachment. Phe(3-CF3) = N[C@@H](Cc1cccc(C(F)(F)F)c1)C(=O)O; Ala(morpholin-4-yl) = N[C@@H](CN1CCOCC1)C(=O)O; Phe(4-COOH) = N[C@@H](Cc1ccc(C(=O)O)cc1)C(=O)O; Bip = N[C@@H](Cc1ccc(-c2ccccc2)cc1)C(=O)O; NH(CH2)14COOH = O=C(O)CCCCCCCCCCCCCCN*; NH(CH2)12COOH = O=C(O)CCCCCCCCCCCCN*; Val(3-OH) = CC(C)(O)[C@H](N)C(=O)O; Cha = N[C@@H](CC1CCCCC1)C(=O)O; PEG4 = NCCOCCOCCOCCOCCC(=O)O; Carboxymethyl = O=C(O)C*; Nle = CCCC[C@H](N)C(=O)O; Orn = NCCC[C@H](N)C(=O)O; Dab = NCC[C@H](N)C(=O)O; AEEA = NCCOCCOCC(=O)O

Target: T1, PD-1/PD-L1 interaction (PE-labeled human PD-L1-Ig binding to Jurkat cell line over-expressing human PD-1) (Homo sapiens, UniProt Q15116)
T1 construct: expressed in transfected cells; host or cells: Jurkat
T1 sequence (Q15116 25-288): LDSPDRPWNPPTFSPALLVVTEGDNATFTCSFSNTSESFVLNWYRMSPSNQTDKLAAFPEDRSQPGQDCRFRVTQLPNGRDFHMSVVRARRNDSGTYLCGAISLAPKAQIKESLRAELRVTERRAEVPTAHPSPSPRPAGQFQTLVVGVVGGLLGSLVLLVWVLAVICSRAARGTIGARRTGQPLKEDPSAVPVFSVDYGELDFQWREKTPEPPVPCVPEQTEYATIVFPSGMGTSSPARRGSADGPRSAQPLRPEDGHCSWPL
Assay: Jurkat-PD-1 Cell Binding High-Content Screening Assay (CBA)
Assay type: cell-based
Conditions: Jurkat cell line over-expressing human PD-1; PE-labeled PD-L1-Ig 20 nM final; read-out: Jurkat hPD1-PDL1 IC50
Summary of the method: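 Binding of fluorescent PD-L1-Ig (20 nM final) to Jurkat-PD-1 cells was measured by automated imaging after 1 h, following a 2 h compound pre-treatment at 37° C.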

IC50 | Compound
41.8 nM | COC[C@@H]1NC(=O)CSC[C@@H](C(=O)N[C@@H](CCN)C(=O)NCCCCCCCCCCCCC(=O)O)NC(=O)[C@H](CO)NC(=O)[C@H](C(C)(C)O)NC(=O)[C@H](CC2CCCCC2)NC(=O)[C@H](CCN)NC(=O)[C@@H](CC(C)C)NC(=O)[C@H](CCCN)NC(=O)[C@H](Cc2ccc(C(=O)O)cc2)NC(=O)[C@H](Cc2ccc(-c3ccccc3)cc2)NC(=O)[C@H](Cc2ccc(C(=O)O)cc2)NC(=O)[C@H](Cc2cccc(C(F)(F)F)c2)NC(=O)[C@H](CC(=O)O)NC(=O)[C@H](Cc2ccc(OCC(=O)O)cc2)NC1=O [Compound 2907] ({CH2CO}-S(Me)Y(Carboxymethyl)D[Phe(3-CF3)][Phe(4-COOH)][Bip][Phe(4-COOH)][Orn][dL][Dab][Cha][Val(3-OH)]SC[Dab]-{NH(CH2)12COOH}; thioether N-14)
541 nM | COC[C@@H]1NC(=O)CSC[C@@H](C(=O)N[C@@H](CCN)C(=O)NCCCCCCCCCCCCCCC(=O)O)NC(=O)[C@H](CO)NC(=O)[C@H](C(C)(C)O)NC(=O)[C@H](CC2CCCCC2)NC(=O)[C@H](CCN)NC(=O)[C@@H](CC(C)C)NC(=O)[C@H](CCCN)NC(=O)[C@H](Cc2ccc(C(=O)O)cc2)NC(=O)[C@H](Cc2ccc(-c3ccccc3)cc2)NC(=O)[C@H](Cc2ccc(C(=O)O)cc2)NC(=O)[C@H](Cc2cccc(C(F)(F)F)c2)NC(=O)[C@H](CC(=O)O)NC(=O)[C@H](Cc2ccc(OCC(=O)O)cc2)NC1=O [Compound 2908] ({CH2CO}-S(Me)Y(Carboxymethyl)D[Phe(3-CF3)][Phe(4-COOH)][Bip][Phe(4-COOH)][Orn][dL][Dab][Cha][Val(3-OH)]SC[Dab]-{NH(CH2)14COOH}; thioether N-14)
18.2 nM | CCCC[C@@H]1NC(=O)CSC[C@@H](C(=O)N[C@@H](CCN)C(=O)NCCOCCOCC(=O)NCCOCCOCC(=O)NCCCCCCCCCCCCC(=O)O)NC(=O)[C@H](CO)NC(=O)[C@H](C(C)(C)O)NC(=O)[C@H](CC2CCCCC2)NC(=O)[C@H](CCN)NC(=O)[C@@H](CC(C)C)NC(=O)[C@H](CCCN)NC(=O)[C@H](Cc2ccc(C(=O)O)cc2)NC(=O)[C@H](Cc2ccc(-c3ccccc3)cc2)NC(=O)[C@H](Cc2ccc(C(=O)O)cc2)NC(=O)[C@H](Cc2cccc(C(F)(F)F)c2)NC(=O)[C@H](CC(=O)O)NC(=O)[C@H](Cc2ccc(OCC(=O)O)cc2)NC1=O [Compound 2909] ({CH2CO}-[Nle]Y(Carboxymethyl)D[Phe(3-CF3)][Phe(4-COOH)][Bip][Phe(4-COOH)][Orn][dL][Dab][Cha][Val(3-OH)]SC[Dab][AEEA][AEEA]-{NH(CH2)12COOH}; thioether N-14)
34.9 nM | CCCC[C@@H]1NC(=O)CSC[C@@H](C(=O)N[C@@H](CCN)C(=O)NCCOCCOCCOCCOCCC(=O)NCCCCCCCCCCCCC(=O)O)NC(=O)[C@H](CO)NC(=O)[C@H](C(C)(C)O)NC(=O)[C@H](CC2CCCCC2)NC(=O)[C@H](CCN)NC(=O)[C@@H](CC(C)C)NC(=O)[C@H](CCCN)NC(=O)[C@H](Cc2ccc(C(=O)O)cc2)NC(=O)[C@H](Cc2ccc(-c3ccccc3)cc2)NC(=O)[C@H](Cc2ccc(C(=O)O)cc2)NC(=O)[C@H](Cc2cccc(C(F)(F)F)c2)NC(=O)[C@H](CC(=O)O)NC(=O)[C@H](Cc2ccc(OCC(=O)O)cc2)NC1=O [Compound 2911] ({CH2CO}-[Nle]Y(Carboxymethyl)D[Phe(3-CF3)][Phe(4-COOH)][Bip][Phe(4-COOH)][Orn][dL][Dab][Cha][Val(3-OH)]SC[Dab][PEG4]-{NH(CH2)12COOH}; thioether N-14)
240 nM | CCCC[C@@H]1NC(=O)CSC[C@@H](C(=O)N[C@@H](CCN)C(=O)NCCOCCOCCOCCOCCC(=O)NCCCCCCCCCCCCCCC(=O)O)NC(=O)[C@H](CO)NC(=O)[C@H](C(C)(C)O)NC(=O)[C@H](CC2CCCCC2)NC(=O)[C@H](CCN)NC(=O)[C@@H](CC(C)C)NC(=O)[C@H](CCCN)NC(=O)[C@H](Cc2ccc(C(=O)O)cc2)NC(=O)[C@H](Cc2ccc(-c3ccccc3)cc2)NC(=O)[C@H](Cc2ccc(C(=O)O)cc2)NC(=O)[C@H](Cc2cccc(C(F)(F)F)c2)NC(=O)[C@H](CC(=O)O)NC(=O)[C@H](Cc2ccc(OCC(=O)O)cc2)NC1=O [Compound 2912] ({CH2CO}-[Nle]Y(Carboxymethyl)D[Phe(3-CF3)][Phe(4-COOH)][Bip][Phe(4-COOH)][Orn][dL][Dab][Cha][Val(3-OH)]SC[Dab][PEG4]-{NH(CH2)14COOH}; thioether N-14)
631 nM | CCCC[C@@H]1NC(=O)CSC[C@@H](C(=O)N[C@@H](CCN)C(=O)NCCCCCCCCCCCCCCC(=O)O)NC(=O)[C@H](CO)NC(=O)[C@H](C(C)(C)O)NC(=O)[C@H](CC2CCCCC2)NC(=O)[C@H](CCN)NC(=O)[C@@H](CC(C)C)NC(=O)[C@H](CCCN)NC(=O)[C@H](Cc2ccc(C(=O)O)cc2)NC(=O)[C@H](Cc2ccc(-c3ccccc3)cc2)NC(=O)[C@H](Cc2ccc(C(=O)O)cc2)NC(=O)[C@H](Cc2cccc(C(F)(F)F)c2)NC(=O)[C@H](CC(=O)O)NC(=O)[C@H](Cc2ccc(OCC(=O)O)cc2)NC1=O [Compound 2913] ({CH2CO}-[Nle]Y(Carboxymethyl)D[Phe(3-CF3)][Phe(4-COOH)][Bip][Phe(4-COOH)][Orn][dL][Dab][Cha][Val(3-OH)]SC[Dab]-{NH(CH2)14COOH}; thioether N-14)
24 nM | CC(C)C[C@H]1NC(=O)[C@H](CCCN)NC(=O)[C@H](Cc2ccc(C(=O)O)cc2)NC(=O)[C@H](Cc2ccc(-c3ccccc3)cc2)NC(=O)[C@H](Cc2ccc(C(=O)O)cc2)NC(=O)[C@H](Cc2cccc(C(F)(F)F)c2)NC(=O)[C@H](CC(=O)O)NC(=O)[C@H](Cc2ccc(OCC(=O)O)cc2)NC(=O)[C@H](CN2CCOCC2)NC(=O)CSC[C@@H](C(=O)N[C@@H](CCN)C(=O)NCCOCCOCC(=O)NCCOCCOCC(=O)NCCCCCCCCCCCCC(=O)O)NC(=O)[C@H](CO)NC(=O)[C@H](C(C)(C)O)NC(=O)[C@H](CC2CCCCC2)NC(=O)[C@H](CCN)NC1=O [Compound 2914] ({CH2CO}-[Ala(morpholin-4-yl)]Y(Carboxymethyl)D[Phe(3-CF3)][Phe(4-COOH)][Bip][Phe(4-COOH)][Orn][dL][Dab][Cha][Val(3-OH)]SC[Dab][AEEA][AEEA]-{NH(CH2)12COOH}; thioether N-14)
176 nM | CC(C)C[C@H]1NC(=O)[C@H](CCCN)NC(=O)[C@H](Cc2ccc(C(=O)O)cc2)NC(=O)[C@H](Cc2ccc(-c3ccccc3)cc2)NC(=O)[C@H](Cc2ccc(C(=O)O)cc2)NC(=O)[C@H](Cc2cccc(C(F)(F)F)c2)NC(=O)[C@H](CC(=O)O)NC(=O)[C@H](Cc2ccc(OCC(=O)O)cc2)NC(=O)[C@H](CN2CCOCC2)NC(=O)CSC[C@@H](C(=O)N[C@@H](CCN)C(=O)NCCOCCOCC(=O)NCCOCCOCC(=O)NCCCCCCCCCCCCCCC(=O)O)NC(=O)[C@H](CO)NC(=O)[C@H](C(C)(C)O)NC(=O)[C@H](CC2CCCCC2)NC(=O)[C@H](CCN)NC1=O [Compound 2915] ({CH2CO}-[Ala(morpholin-4-yl)]Y(Carboxymethyl)D[Phe(3-CF3)][Phe(4-COOH)][Bip][Phe(4-COOH)][Orn][dL][Dab][Cha][Val(3-OH)]SC[Dab][AEEA][AEEA]-{NH(CH2)14COOH}; thioether N-14)
